Biological target: T1, BTK (Homo sapiens, UniProt Q06187)
T1 construct: The GM01501.3 cell line endogenously expresses BTK with a HiBiT fusion tag via CRISPR knock-in at its C-terminal region; endogenous in cells; host or cells: GM01501.3 (GM01501 cells engineered by CRISPR knock-in of HiBiT at the BTK locus)
Assay: BTK degradation assay using the HiBiT Method (Nano-Glo HiBiT Lytic Assay, GM01501.3 cells)
Assay type: cell-based
Conditions: HiBiT Degradation on GM01501.3 BTK @ 6 hours
Method in brief: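 Degradation read-out: HiBiT luminescence after lytic reagent addition, giving DC50. Compounds dosed from 10 μM in 11 half-log steps (duplicate) onto GM01501.3 cells, whose endogenous BTK carries a C-terminal HiBiT knock-in tag; 6 h exposure, 37 °C, 5% CO2.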

T1 sequence (Q06187 whole entry, the tested form may be a part): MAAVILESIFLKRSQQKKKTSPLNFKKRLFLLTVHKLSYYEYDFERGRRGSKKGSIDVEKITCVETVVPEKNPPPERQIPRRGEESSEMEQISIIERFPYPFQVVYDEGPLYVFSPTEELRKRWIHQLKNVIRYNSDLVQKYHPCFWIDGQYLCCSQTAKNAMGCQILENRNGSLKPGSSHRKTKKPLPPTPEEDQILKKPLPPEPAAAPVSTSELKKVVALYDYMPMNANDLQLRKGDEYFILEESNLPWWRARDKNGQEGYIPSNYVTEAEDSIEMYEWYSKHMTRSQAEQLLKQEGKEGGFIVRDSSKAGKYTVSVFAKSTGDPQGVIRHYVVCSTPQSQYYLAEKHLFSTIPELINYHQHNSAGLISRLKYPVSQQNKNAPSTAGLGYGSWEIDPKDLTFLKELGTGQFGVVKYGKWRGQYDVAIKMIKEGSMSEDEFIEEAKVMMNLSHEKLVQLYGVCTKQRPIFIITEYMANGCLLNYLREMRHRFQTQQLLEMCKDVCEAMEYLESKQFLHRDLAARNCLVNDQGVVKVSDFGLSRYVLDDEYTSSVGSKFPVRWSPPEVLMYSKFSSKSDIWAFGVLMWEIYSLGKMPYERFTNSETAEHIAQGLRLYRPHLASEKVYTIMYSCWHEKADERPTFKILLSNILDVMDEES

SMILES	DC50 [nM]
Cc1cc(-c2ncnn3cc(-c4ccc(CN5CCC(c6ccc(NC7CCC(=O)NC7=O)cc6)CC5)cc4)cc23)ccc1CNC(=O)N1CC(OC(C)(C)C)C1 (stereo not drawn) [Example 97, 3-tert-butoxy-N-[[4-[6-[4-[[4-[4-[(2,6-dioxo-3-piperidyl)amino]phenyl]-1-piperidyl]methyl]phenyl]pyrrolo[2,1-f][1,2,4]triazin-4-yl]-2-methyl-phenyl]methyl]azetidine-1-carboxamide]	< 100
Cc1cc(-c2ncnn3cc(-c4ccc(OCCCCCCCCN5CCC(c6ccc(NC7CCC(=O)NC7=O)cc6)CC5)cc4)cc23)ccc1CNC(=O)c1noc(C(C)(C)C)n1 (stereo not drawn) [Example 115, -tert-butyl-N-[[4-[6-[4-[8-[4-[4-[(2,6-dioxo-3-piperidyl)amino]phenyl]-1-piperidyl]octoxy]phenyl]pyrrolo[2,1-f][1,2,4]triazin-4-yl]-2-methyl-phenyl]methyl]-1,2,4-oxadiazole-3-carboxamide]	< 100
Cc1cc(-c2ccnc3nn(-c4ccc(CN5CCC(c6ccc(NC7CCC(=O)NC7=O)cc6)CC5)cc4)cc23)ccc1CNC(=O)c1noc(C(C)(C)C)n1 (stereo not drawn) [Example 159, 5-tert-butyl-N-[[4-[2-[4-[[4-[4-[(2,6-dioxo-3-piperidyl)amino]phenyl]-1-piperidyl]methyl]phenyl]pyrazolo[3,4-b]pyridin-4-yl]-2-methyl-phenyl]methyl]-1,2,4-oxadiazole-3-carboxamide]	100 to 500
CN(Cc1ccc(-c2ncnn3cc(-c4ccc(CN5CCC(c6ccc7c(N8CCC(=O)NC8=O)nn(C)c7c6)CC5)cc4)cc23)cc1F)C(=O)c1noc(C(C)(C)C)n1 [Example 37, 5-tert-butyl-N-[[4-[6-[4-[[4-[3-(2,4-dioxohexahydropyrimidin-1-yl)-1-methyl-indazol-6-yl]-1-piperidyl]methyl]phenyl]pyrrolo[2,1-f][1,2,4]triazin-4-yl]-2-fluoro-phenyl]methyl]-N-methyl-1,2,4-oxadiazole-3-carboxamide]	100 to 500
Cc1cc(-c2ncnn3cc(CCCCN4CC(c5ccc(NC6CCC(=O)NC6=O)cc5)C4)cc23)ccc1CNC(=O)c1noc(C(C)(C)C)n1 (stereo not drawn) [Example 148, 5-tert-butyl-N-[[4-[6-[4-[3-[4-[(2,6-dioxo-3-piperidyl)amino]phenyl]azetidin-1-yl]butyl]pyrrolo[2,1-f][1,2,4]triazin-4-yl]-2-methyl-phenyl]methyl]-1,2,4-oxadiazole-3-carboxamide]	100 to 500
COc1cc(-c2ncnn3cc(-c4ccc(CN5CCC(c6ccc(NC7CCC(=O)NC7=O)cc6)CC5)cc4)cc23)ccc1CNC(=O)c1noc(C(C)(C)C)n1 (stereo not drawn) [Example 47, 5-tert-butyl-N-[[4-[6-[4-[[4-[4-[(2,6-dioxo-3-piperidyl)amino]phenyl]-1-piperidyl]methyl]phenyl]pyrrolo[2,1-f][1,2,4]triazin-4-yl]-2-methoxy-phenyl]methyl]-1,2,4-oxadiazole-3-carboxamide]	< 100
Cc1cc(-c2ncnn3cc(CCN4CCC(c5ccc6c(N7CCC(=O)NC7=O)nn(C)c6c5)CC4)cc23)ccc1CNC(=O)c1cn(C(C)(C)C)nn1 [Example 271]	< 100
Cc1cc(-c2ncnn3cc(-c4ccc(CNC5CCc6cc(NC7CCC(=O)NC7=O)ccc6C5)cc4)cc23)ccc1CNC(=O)c1noc(C(C)(C)C)n1 (stereo not drawn) [Example 202, 5-(tert-butyl)-N-(4-(6-(4-(((6-((2,6-dioxopiperidin-3-yl)amino)-1,2,3,4-tetrahydronaphthalen-2-yl)amino)methyl)phenyl)pyrrolo[2,1-f][1,2,4]triazin-4-yl)-2-methylbenzyl)-1,2,4-oxadiazole-3-carboxamide]	< 100
Cc1cc(-c2ncnn3cc(-c4ccc(CN5CCC(c6ccc(NC7CCC(=O)NC7=O)cc6)CC5)cc4)cc23)ccc1CNC(=O)c1ccc(C(C)(C)C)cc1 (stereo not drawn) [Example 84, 4-tert-butyl-N-[[4-[6-[4-[[4-[4-[(2,6-dioxo-3-piperidyl)amino]phenyl]-1-piperidyl]methyl]phenyl]pyrrolo[2,1-f][1,2,4]triazin-4-yl]-2-methyl-phenyl]methyl]benzamide]	< 100
Cc1cc(-c2ncnn3cc(CCN4CCN(c5ncc(NC6CCC(=O)NC6=O)cc5F)CC4)cc23)ccc1CNC(=O)c1noc(C(C)(C)C)n1 (stereo not drawn) [Example 263, 5-(tert-butyl)-N-(4-(6-(2-(4-(5-((2,6-dioxopiperidin-3-yl)amino)-3-fluoropyridin-2-yl)piperazin-1-yl)ethyl)pyrrolo[2,1-f][1,2,4]triazin-4-yl)-2-methylbenzyl)-1,2,4-oxadiazole-3-carboxamide]	< 100

Continued, values first:

DC50 [nM]	SMILES
< 100	Cc1cc(-c2ncnn3cc(-c4cccc(-n5cc(CN6CCC(c7ccc(C8CCC(=O)NC8=O)cc7)CC6)c(C)n5)c4)cc23)ccc1CNC(=O)c1noc(C(C)(C)C)n1 (stereo not drawn) [Example 205, 5-(tert-butyl)-N-(4-(6-(3-(4-((4-(4-(2,6-dioxopiperidin-3-yl)phenyl)piperidin-1-yl)methyl)-3-methyl-1H-pyrazol-1-yl)phenyl)pyrrolo[2,1-f][1,2,4]triazin-4-yl)-2-methylbenzyl)-1,2,4-oxadiazole-3-carboxamide]
< 100	CC(C)(C)c1nc(C(=O)NCc2ccc(-c3ncnn4cc(-c5ccc(CN6CCOCC6Cc6ccc(OC7CCC(=O)NC7=O)cc6)cn5)cc34)cc2F)no1 (stereo not drawn) [Example 238, 5-(tert-butyl)-N-(4-(6-(5-((3-(4-((2,6-dioxopiperidin-3-yl)oxy)benzyl)morpholino)methyl)pyridin-2-yl)pyrrolo [2,1-f][1,2,4]triazin-4-yl)-2-fluorobenzyl)-1,2,4-oxadiazole-3-carboxamide]
< 100	Cc1cc(-c2ncnn3cc(-c4ccc(CN5CCC(c6ccc(NC7CCC(=O)NC7=O)cc6)CC5)cc4)cc23)ccc1CNC(=O)c1ccc(C(F)(F)F)cc1 (stereo not drawn) [Example 73, N-[[4-[6-[4-[[4-[4-[(2,6-dioxo-3-piperidyl)amino]phenyl]-1-piperidyl]methyl]phenyl]pyrrolo[2,1-f][1,2,4]triazin-4-yl]-2-methyl-phenyl]methyl]-4-(trifluoromethyl)benzamide]
< 100	Cc1cc(-c2ncnn3cc(CCN4CCC(c5ccc(OC6CCC(=O)NC6=O)cc5F)CC4)cc23)ccc1CNC(=O)c1noc(C(C)(C)C)n1 (stereo not drawn) [Example 254, 5-(tert-butyl)-N-(4-(6-(2-(4-(4-((2,6-dioxopiperidin-3-yl)oxy)-2-fluorophenyl)piperidin-1-yl)ethyl)pyrrolo[2,1-f][1,2,4]triazin-4-yl)-2-methylbenzyl)-1,2,4-oxadiazole-3-carboxamide]
< 100	CC(C)(C)c1nc(C(=O)NCc2ccc(-c3ncnn4cc(-c5ccc(CN6CC[C@@H](c7ccc(NC8CCC(=O)NC8=O)cc7)CC67CC7)cc5)cc34)cc2F)no1 (stereo partly drawn) [Example 38, 5-tert-butyl-N-[[4-[6-[4-[[(7R)-7-[4-[(2,6-dioxo-3-piperidyl)amino]phenyl]-4-azaspiro[2.5]octan-4-yl]methyl]phenyl]pyrrolo[2,1-f][1,2,4]triazin-4-yl]-2-fluoro-phenyl]methyl]-1,2,4-oxadiazole-3-carboxamide]
< 100	Cn1nc(N2CCC(=O)NC2=O)c2ccc(C3CCN(Cc4ccc(-c5cc6nccc(-c7ccc(CNC(=O)c8noc(C(C)(C)C)n8)c(F)c7)n6n5)cc4)CC3)cc21 [Example 164, 5-tert-butyl-N-[[4-[2-[4-[[4-[3-(2,4-dioxohexahydropyrimidin-1-yl)-1-methyl-indazol-6-yl]-1-piperidyl]methyl]phenyl]pyrazolo[1,5-a]pyrimidin-7-yl]-2-fluoro-phenyl]methyl]-1,2,4-oxadiazole-3-carboxamide]
< 100	Cc1cc(-c2ncnn3cc(CCCCN4CCN(c5ccc(NC6CCC(=O)NC6=O)cc5)CC4)cc23)ccc1CNC(=O)c1noc(C(C)(C)C)n1 (stereo not drawn) [Example 131, 5-tert-butyl-N-[[4-[6-[4-[4-[4-[(2,6-dioxo-3-piperidyl)amino]phenyl]piperazin-1-yl]butyl]pyrrolo[2,1-f][1,2,4]triazin-4-yl]-2-methyl-phenyl]methyl]-1,2,4-oxadiazole-3-carboxamide]
< 100	Cc1cc(-c2ncnn3cc(-c4ccc(CN5CCCC(c6ccc(NC7CCC(=O)NC7=O)cc6)C5)cc4)cc23)ccc1CNC(=O)c1noc(C(C)(C)C)n1 (stereo not drawn) [Example 7, 5-tert-butyl-N-[[4-[6-[4-[[3-[4-[(2,6-dioxo-3-piperidyl)amino]phenyl]-1-piperidyl]methyl]phenyl]pyrrolo[2,1-f][1,2,4]triazin-4-yl]-2-methyl-phenyl]methyl]-1,2,4-oxadiazole-3-carboxamide]
< 100	Cc1cc(-c2ncnn3cc(-c4nccc(CN5CCC(c6ccc(C7CCC(=O)NC7=O)cc6)CC5)n4)cc23)ccc1CNC(=O)c1noc(C(C)(C)C)n1 (stereo not drawn) [Example 215, 5-(tert-butyl)-N-(4-(6-(4-((4-(4-(2,6-dioxopiperidin-3-yl)phenyl)piperidin-1-yl)methyl)pyrimidin-2-yl)pyrrolo [2,1-f][1,2,4]triazin-4-yl)-2-methylbenzyl)-1,2,4-oxadiazole-3-carboxamide]
< 100	Cc1cc(-c2ncnn3cc(CCCCN4CCC(c5ccc6c(N7CCC(=O)NC7=O)nn(C)c6c5F)CC4)cc23)ccc1CNC(=O)c1noc(C(C)(C)C)n1 [Example 278, 5-(tert-butyl)-N-(4-(6-(4-(4-(3-(2,4-dioxotetrahydropyrimidin-1(2H)-yl)-7-fluoro-1-methyl-1H-indazol-6-yl)piperidin-1-yl)butyl)pyrrolo[2,1-f][1,2,4]triazin-4-yl)-2-methylbenzyl)-1,2,4-oxadiazole-3-carboxamide]
< 100	Cc1cc(-c2ncnn3cc(COCCN4CCC(c5ccc(C6CCC(=O)NC6=O)cc5)CC4)cc23)ccc1CNC(=O)c1noc(C(C)(C)C)n1 (stereo not drawn) [Example 144, 5-tert-butyl-N-[[4-[6-[2-[4-[4-(2,6-dioxo-3-piperidyl)phenyl]-1-piperidyl]ethoxymethyl]pyrrolo[2,1-f][1,2,4]triazin-4-yl]-2-methyl-phenyl]methyl]-1,2,4-oxadiazole-3-carboxamide]

Reference: patent publication US20240287076A1, “COMPOUNDS FOR TARGETING DEGRADATION OF BRUTON'S TYROSINE KINASE” (BIOGEN MA INC., priority 2021, published 2024)
